Results published in patent US7595320B2, “Hydrazinocarbonyl-thieno[2,3-C]pyrazoles, process for preparing them, compositions containing them and use thereof” (Aventis Pharma S.A., priority 2005, dated 2009).
Structures can show the parent of a compound that is named as a salt. Values belong to the molecule of their own block, whether it stands above or below them.

Tests used:
[1] = biological target: T1, Aurora1 (Homo sapiens, UniProt Q96GD4); test: Aurora1 enzymatic test, NuMA phosphorylation with [33P]ATP, Flashplate; assay type: biochemical; settings: Aurora-B/INCENP-C3 recombinant complex, 1 μM ATP
T1 construct: His tag (N); made in house
T1 sequence (Q96GD4 whole entry, species assumed): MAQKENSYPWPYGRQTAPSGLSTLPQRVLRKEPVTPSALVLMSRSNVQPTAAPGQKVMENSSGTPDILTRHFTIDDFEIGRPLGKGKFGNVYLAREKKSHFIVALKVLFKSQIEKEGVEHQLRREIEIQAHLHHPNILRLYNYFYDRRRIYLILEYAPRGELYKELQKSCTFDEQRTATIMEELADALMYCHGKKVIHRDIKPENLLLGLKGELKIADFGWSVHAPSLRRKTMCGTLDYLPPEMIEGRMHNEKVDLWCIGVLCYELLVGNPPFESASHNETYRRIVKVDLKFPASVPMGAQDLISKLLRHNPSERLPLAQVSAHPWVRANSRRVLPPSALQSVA
T1 sequence (Q9NQS7 835-903 partner limits assumed, species assumed): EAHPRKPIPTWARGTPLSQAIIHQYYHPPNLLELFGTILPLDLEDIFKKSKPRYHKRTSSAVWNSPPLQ
How it was run: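 Recombinant His-tagged Aurora-B/INCENP-C3 complex (10 nM) phosphorylates 500 nM His-NuMA fragment with 1 µM ATP plus [33P]ATP, 30 minutes at 37° C in Tris pH 7.5 with 5 mM MgCl2, on nickel-chelate Flashplates. Incorporated 33P counted; percent inhibition versus enzyme control after no-enzyme background subtraction.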

[2] = biological target: T2, Aurora2 (Homo sapiens, UniProt O14965); test: Aurora2 enzymatic test, NuMA phosphorylation with [33P]ATP, Flashplate; assay type: biochemical; settings: whole recombinant protein, 1 μM ATP
T2 construct: Aurora2: whole recombinant protein comprising an N-terminal histidine tail; His tag (N); made in house; host or cells: E. coli
T2 sequence (O14965 1-403): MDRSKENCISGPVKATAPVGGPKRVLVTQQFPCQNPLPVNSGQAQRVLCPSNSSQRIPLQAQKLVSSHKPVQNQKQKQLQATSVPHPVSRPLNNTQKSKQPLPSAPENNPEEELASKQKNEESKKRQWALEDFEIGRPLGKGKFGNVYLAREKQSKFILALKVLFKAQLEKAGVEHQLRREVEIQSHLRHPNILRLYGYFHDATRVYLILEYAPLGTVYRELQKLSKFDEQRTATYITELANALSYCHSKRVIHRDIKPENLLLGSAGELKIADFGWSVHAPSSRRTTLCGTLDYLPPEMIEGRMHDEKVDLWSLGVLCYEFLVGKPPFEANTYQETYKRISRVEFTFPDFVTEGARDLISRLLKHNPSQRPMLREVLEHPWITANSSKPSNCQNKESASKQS
How it was run: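 Full-length His-tagged Aurora2 (E. coli, >82% pure) at 10 nM phosphorylated 500 nM His-NuMA fragment on Ni-chelate Flashplates. Conditions were pH 7.5 Tris buffer with 10 mM MgCl2, 1 μM ATP plus [33P]ATP, 30 min at 37 °C.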

[3] = biological target: T3, CDK2/cycline E (Homo sapiens, UniProt P24941); test: CDK2/cyclineE Flashplate test in 96-well format; assay type: biochemical; settings: CDK2/cycline E complex, 1 μM ATP
T3 construct: made in house; host or cells: Sf21 insect cells (baculovirus coinfection)
How it was run: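 Recombinant human CDK2/cyclin E (His-tagged cyclin E, coexpressed in Sf21 cells), 20 nM, phosphorylates biotinylated pRb peptide (10 μM) with 1 μM ATP plus [γ-33P]ATP in HEPES pH 7.5, MgCl2, DTT at 30 °C. Inhibitors tested at 10 μM down to 0.014 μM; 33P incorporation read by scintillation on streptavidin plates.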

[4] = biological target: T4, Tie2 (Homo sapiens, UniProt Q02763); test: Tie2 kinase test, phosphorylation of PLC with GST-Tie2; assay type: biochemical; settings: GST-Tie2 intracellular domain 776-1124
T4 construct: amino acids of the intracellular domain 776-1124; made in house; host or cells: baculovirus expression (pFastBacGT vector)
T4 sequence (Q02763 776-1124): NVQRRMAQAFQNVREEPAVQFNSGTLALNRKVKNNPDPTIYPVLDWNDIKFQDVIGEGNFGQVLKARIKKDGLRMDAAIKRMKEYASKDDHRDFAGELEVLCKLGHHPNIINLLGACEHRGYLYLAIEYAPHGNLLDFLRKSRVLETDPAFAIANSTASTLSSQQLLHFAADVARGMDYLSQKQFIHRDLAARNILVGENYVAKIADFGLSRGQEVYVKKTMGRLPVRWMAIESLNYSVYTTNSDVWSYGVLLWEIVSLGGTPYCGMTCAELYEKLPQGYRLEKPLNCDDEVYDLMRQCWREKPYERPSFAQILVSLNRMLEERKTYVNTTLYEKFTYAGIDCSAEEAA

Structure (SMILES): CN1CCCN(Cc2ccc(C(=O)Nc3n[nH]c4sc(C(=O)NN(C)c5ccc(Cl)cc5)cc34)cc2)CC1 (as salt: salt) [Example 12b, 4-(4-methylperhydro-1,4-diazepin-1-ylmethyl)-N-[5-(N′-(4-chlorophenyl)-N′-methylhydrazinocarbonyl)-1H-thieno[2,3-c]pyrazol-3-yl]benzamide]
melting point: 162 °C

Structure (SMILES): CN(NC(=O)c1cc2c(NC(=O)c3ccc(CN4CCOCC4)cc3)n[nH]c2s1)c1ccccc1 [Example 8, N-[5-(N′-methyl-N′-phenylhydrazinocarbonyl)-1H-thieno[2,3-c]pyrazol-3-yl]-4-morpholin-4-ylmethylbenzamide]
IC50 [1]: 29 nM | IC50 [2]: 8 nM | IC50 [3]: 134 nM | IC50 [4]: 252 nM | melting point: 242 °C

Structure (SMILES): CN(NC(=O)c1cc2c(NC(=O)c3ccc(Br)cc3)n[nH]c2s1)c1ccccc1 [Example 9, 4-bromo-N-[5-(N′-methyl-N′-phenylhydrazinocarbonyl)-1H-thieno[2,3-c]pyrazol-3-yl]benzamide]
IC50 [1]: 131 nM | IC50 [2]: 157 nM | IC50 [3]: 65 nM | IC50 [4]: 820 nM | melting point: 172 °C

Structure (SMILES): CN(Cc1ccc(C(=O)Nc2n[nH]c3sc(C(=O)NN(C)c4ccccc4)cc23)cc1)c1ccccc1 [Example 24, 4-[(methylphenylamino)methyl]-N-[5-(N′-methyl-N′-phenylhydrazinocarbonyl)-1H-thieno[2,3-c]pyrazol-3-yl]benzamide]
IC50 [1]: 288 nM | IC50 [2]: 49 nM | IC50 [3]: 1490 nM | IC50 [4]: 1030 nM | melting point: 242 °C

Results, then the molecule that gave them:

IC50 [1]: 33 nM | IC50 [2]: 21 nM | IC50 [3]: 146 nM | IC50 [4]: 29 nM
Structure (SMILES): CN1CCN(c2ccc(C(=O)Nc3n[nH]c4sc(C(=O)N/N=C\c5ccccc5)cc34)cc2)CC1 [Example 45, N-[5-(benzylidenehydrazinocarbonyl)-1H-thieno-[2,3-c]pyrazol-3-yl]-4-(4-methylpiperazin-1-yl)benzamide]

IC50 [1]: 12 nM | IC50 [2]: 6 nM | IC50 [3]: 100 nM | IC50 [4]: 275 nM
Structure (SMILES): CN(NC(=O)c1cc2c(NC(=O)c3ccc(OCCN4CCOCC4)cc3)n[nH]c2s1)c1ccccc1 [Example 46, N-[5-(N′-methyl-N′-phenylhydrazinocarbonyl)-1H-thieno[2,3-c]pyrazol-3-yl]-4-(2-morpholin-4-ylethoxy)benzamide]
